Source: patent US11352352B2, “Aminopyrimidine compound, preparation method therefor and use thereof” (BEIJING ADAMADLE BIOTECHNOLOGY LIMITED LIABILITY COMPANY, priority 2017, dated 2022)
pIC50: −log10 of the molar value.

Experiments:
Assay in all cases: Cell proliferation inhibition experiment, CellTiter-Glo (CTG) method
Assay type in all cases: cell-based
A-431 = details: Homo sapiens, A-431, 72 h, A-431 cells, 3 days
How it was run: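 Log-phase cells (viability >90%) were plated and incubated overnight, then dosed in triplicate across nine 3-fold concentrations. The top dose was 30 μM on A-431 and 1.111 μM on NCI-H1975 and PC-9. Survival after 3 days was measured by CellTiter-Glo and IC50 derived by non-linear regression.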

PC-9 = details: Homo sapiens, PC-9, 72 h, PC-9 cells, 3 days
How it was run: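 Cells in log-phase growth (viability above 90% by trypan blue) were seeded at 90 μL per well in black-walled, clear-bottom 96-well plates and incubated overnight at 37° C., 5% CO2. A T0 plate was read the next day. Test compounds were added at nine concentrations in triplicate with a solvent control. Viability was measured by CellTiter-Glo luminescence on EnVision, and IC50 came from non-linear S-curve fitting in GraphPad Prism 5.0.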

NCI-H1975 = details: for pIC50: Homo sapiens, NCI-H1975, 72 h, NCI-H1975 cells, CTG, 3 days; for A-431/NCI-H1975 Selectivity: ratio of A-431 IC50 to NCI-H1975 IC50
How it was run: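 NCI-H1975 cells with viability above 90% by trypan blue were seeded at 90 μL per well in black 96-well plates and incubated overnight at 37° C., 5% CO2. Compounds were added at nine concentrations in triplicate, and viability was measured with CellTiter-Glo luminescence on EnVision. IC50 came from non-linear S-curve fitting in GraphPad Prism 5.0.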

| Compound | pIC50 (A-431) | pIC50 (PC-9) | pIC50 (NCI-H1975) | A-431/NCI-H1975 Selectivity (NCI-H1975) |
| --- | --- | --- | --- | --- |
| C=CC(=O)Nc1cc(Nc2nccc(-c3ccc4c(cnn4C)c3)n2)c(OC)cc1N(C)CCN(C)C(C)C [compound 257] | 5.68 | 7.37 | 7.23 | 35.3 |
| C=CC(=O)Nc1cc(Nc2nccc(-c3ccc4c(cnn4C)c3)n2)c(OCC)cc1N(C)CCN(C)CC [compound 258] | 5.53 | 7.49 | 7.29 | 57.1 |
| C=CC(=O)Nc1cc(Nc2nccc(-c3ccc4c(cnn4C)c3)n2)c(OC(F)F)cc1N(C)CCN(C)CC [compound 259] | 5.82 | 7.70 | 7.83 | 102.6 |
| C=CC(=O)Nc1cc(Nc2nccc(-c3ccc4c(cnn4C)c3)n2)c(OC(F)F)cc1N(C)CCN(C)C [compound 260] | 5.88 | 7.70 | 7.89 | 103.5 |
| C=CC(=O)Nc1c(N(C)CCN(C)C)cc(OC)c(Nc2nccc(-c3ccc4c(cnn4C)c3)n2)c1F [compound 261] | 5.68 | 7.39 | 7.43 | 56.8 |
| C=CC(=O)Nc1cc(Nc2nccc(-c3ccc4c(cnn4C)c3)n2)c(OC)cc1N1CCC(N(CC)CC)CC1 [compound 262] | 5.53 | 7.28 | 6.91 | 24.1 |
| C=CC(=O)Nc1cc(Nc2cc(-c3ccc4c(cnn4C)c3)ncn2)c(OC)cc1N(C)CCNC(C)C [compound 263] | 5.92 | 7.73 | 8.04 | 131.9 |
| C=CC(=O)Nc1cc(Nc2cc(-c3ccc4c(cnn4C)c3)ncn2)c(OC)cc1N1C[C@@H](C)N[C@@H](C)C1 [compound 264] | 6.03 | 7.66 | 8.26 | – |
| C=CC(=O)Nc1cc(Nc2cc(-c3ccc4c(cnn4C)c3)ncn2)c(OCC)cc1N1C[C@@H](C)N[C@@H](C)C1 [compound 265] | 5.79 | 7.46 | 7.69 | 78.9 |
| C=CC(=O)Nc1cc(Nc2cc(-c3ccc4c(cnn4C)c3)ncn2)c(OC(F)F)cc1N1C[C@@H](C)N[C@@H](C)C1 [compound 266] | 6.03 | 7.61 | 8.00 | 92.9 |
| C=CC(=O)Nc1cc(Nc2cc(-c3ccc4c(cnn4C)c3)ncn2)c(OC)cc1N1CCN(C(C)(C)CO)CC1 [compound 268] | 5.77 | 7.81 | 7.57 | 62.7 |
| C=CC(=O)Nc1cc(Nc2cc(-c3ccc4c(cnn4C)c3)ncn2)c(OC)cc1N(C)CCO [compound 269] | 5.80 | 7.79 | 7.67 | 72.9 |
| C=CC(=O)Nc1cc(Nc2cc(-c3ccc4c(cnn4C)c3)ncn2)c(OC)cc1N1CCC(CCO)CC1 [compound 270] | 5.62 | 7.26 | 7.35 | 54.1 |
| C=CC(=O)Nc1cc(Nc2cc(-c3ccc4c(cnn4C)c3)ncn2)c(OCC)cc1N(C)CCNC(C)C [compound 271] | 5.62 | 7.11 | 7.60 | 94.9 |
| C=CC(=O)Nc1cc(Nc2cc(-c3ccc4c(cnn4C)c3)ncn2)c(OC(F)F)cc1N(C)CCNC(C)C [compound 272] | 6.01 | 7.86 | 8.25 | 176.3 |
| C=CC(=O)Nc1cc(Nc2cc(-c3ccc4c(cnn4C)c3)ncn2)c(OC(F)F)cc1N1CCN(CCO)CC1 [compound 273] | 5.57 | 7.10 | 7.27 | 50.2 |
| C=CC(=O)Nc1cc(Nc2cc(-c3ccc4cnn(C)c4c3)ncn2)c(OC)cc1N1CCN(CCO)CC1 [compound 274] | 5.69 | 7.25 | 7.33 | 43.4 |
| C=CC(=O)Nc1cc(Nc2cc(-c3ccc4cnn(C)c4c3)ncn2)c(OC(F)F)cc1N1CCN(CCO)CC1 [compound 275] | 5.48 | 7.36 | 6.87 | 24.3 |
| C=CC(=O)Nc1cc(Nc2cc(-c3ccc4cnn(C)c4c3)ncn2)c(OC)cc1N1C[C@@H](C)N[C@@H](C)C1 [compound 276] | 5.68 | 7.89 | 7.49 | 65.1 |

| Compound | pIC50 (A-431) | pIC50 (PC-9) | pIC50 (NCI-H1975) | A-431/NCI-H1975 Selectivity (NCI-H1975) |
| --- | --- | --- | --- | --- |
| C=CC(=O)Nc1cc(Nc2cc(-c3ccc4cnn(C)c4c3)ncn2)c(OC(F)F)cc1N1C[C@@H](C)N[C@@H](C)C1 [compound 277] | 5.70 | 7.66 | 7.28 | 37.9 |
| C=CC(=O)Nc1cc(Nc2nccc(-c3ccc4c(cnn4C)c3)n2)c(OC)cc1N1CCN(CCO)CC1 [compound 278] | 5.61 | 7.39 | 6.93 | 21.2 |
| C=CC(=O)Nc1cc(Nc2nccc(-c3ccc4c(cnn4C)c3)n2)c(OC)cc1N(C)CCO [compound 279] | 5.54 | 7.67 | 7.59 | 112.8 |
| C=CC(=O)Nc1cc(Nc2nccc(-c3ccc4c(cnn4C)c3)n2)c(OC)cc1N1C[C@@H](C)N[C@@H](C)C1 [compound 280] | 5.49 | 7.06 | 7.00 | 32.4 |
| C=CC(=O)Nc1cc(Nc2nccc(-c3ccc4c(cnn4C)c3)n2)c(OC)cc1N(C)CCNC(C)C [compound 281] | 5.48 | 7.17 | 7.14 | 46.2 |
| C=CC(=O)Nc1cc(Nc2cc(-c3ccc4c(cnn4C)c3)ncn2)c(CC)cc1N1CCN(C)CC1 [compound 282] | 5.86 | 7.49 | 7.64 | 60.4 |
| C=CC(=O)Nc1cc(Nc2cc(-c3ccc4c(cnn4C)c3)ncn2)c(CC)cc1N1CCC(N2CCOCC2)CC1 [compound 283] | 5.82 | 7.33 | 7.43 | 40.8 |
| C=CC(=O)Nc1cc(Nc2cc(-c3ccc4c(cnn4C)c3)ncn2)c(OC)cc1N1CCC(N(C)C)C1 (stereo not shown) [compound 284] | 6.17 | 7.87 | 7.58 | 25.5 |
| C=CC(=O)Nc1cc(Nc2cc(-c3ccc4nc(C)sc4c3)ncn2)c(OC)cc1OCCN(C)C [compound 285] | 6.20 | 7.64 | 7.39 | 15.6 |
| C=CC(=O)Nc1cc(Nc2cc(-c3ccc4c(cnn4C)c3)ncn2)c(OC)cc1C(=O)N(C)CCN(C)C [compound 286] | 6.09 | 7.51 | 7.40 | 20.0 |
| C=CC(=O)Nc1cc(Nc2cc(-c3ccc4c(cnn4C)c3)ncn2)c(OC(F)F)cc1N(C)CCN(C)C [compound 287] | 6.21 | 8.04 | 8.40 | 152.9 |
| C=CC(=O)Nc1cc(Nc2cc(-c3ccc4c(cnn4C)c3)ncn2)c(OC)cc1N(C)C(=O)CN(C)C [compound 288] | 5.72 | 7.12 | 7.01 | 19.6 |
| C=CC(=O)Nc1cc(Nc2cc(-c3ccc4c(cnn4C)c3)ncn2)c(OCC)cc1N(C)CCN(C)C [compound 289] | 5.98 | 7.62 | 7.91 | 85.1 |
| C=CC(=O)Nc1cc(Nc2nccc(-c3ccc4c(cnn4C)c3)n2)c(OC)cc1C(=O)N(C)CCN(C)C [compound 290] | 5.79 | 7.44 | 7.51 | 52.9 |
| C=CC(=O)Nc1cc(Nc2cc(-c3ccc4c(cnn4C)c3)ncn2)c(OC2CC2)cc1N(C)CCN(C)C [compound 291] | 5.56 | 7.27 | 7.05 | 30.6 |
| C=CC(=O)Nc1cc(Nc2nccc(-c3ccc4c(cnn4C)c3)n2)c(OC2CC2)cc1N(C)CCN(C)C [compound 292] | 5.53 | 7.19 | 7.04 | 32.9 |
| C=CC(=O)Nc1cc(Nc2cc(-c3ccc4c(cnn4C)c3)ncn2)c(OC)cc1N(C)C1CCN(C(C)=O)CC1 [compound 293] | 5.56 | 7.27 | 7.10 | 34.3 |
| C=CC(=O)Nc1cc(Nc2cc(-c3ccc4c(cnn4C)c3)ncn2)c(OC)cc1CN1CCN(C)CC1 [compound 294] | 5.34 | 7.35 | 7.15 | 64.2 |
| C=CC(=O)Nc1cccc(Nc2nc(Nc3ccc4c(cnn4C)c3)ncc2F)c1 [known compound 296, reference compound] | 5.84 | 6.92 | 7.04 | 15.9 |
